In ChEMBL document CHEMBL1833893, “Synthesis and anticonvulsant activity of new 1-[2-oxo-2-(4-phenylpiperazin-1-yl)ethyl]pyrrolidine-2,5-diones” (Bioorg Med Chem Lett, 2011) one finds Activity, minimal effective dose and MTC data, which are given here for seven compounds.

In data set [1] the test system is Mus musculus. Nature of the data set: Anticonvulsant activity in albino CF1 mouse assessed as protection against maximal electroshock-induced seizures at 300 mg/kg, ip after 4 hrs. The format is functional, organism-based. Set-up: dose 300 mg/kg. For orientation: The maximal electroshock test induces tonic seizures with an electrical stimulus.
In data set [2] the test system is Mus musculus. Nature of the data set: Neurotoxicity in albino CF1 mouse assessed as motor impairment at 300 mg/kg, ip after 0.5 hrs by rotarod test. The format is toxicity, organism-based. Details: dose 300 mg/kg, route intraperitoneal. The settings on record: in vivo. On the technique in general: In the rotarod test animals must keep their balance on a rotating rod.

For data set [3], the system named is Mus musculus. Kind of data set: Anticonvulsant activity in ip dosed albino CF1 mouse assessed as protection against maximal electroshock-induced seizures after 0.5 hrs. The format is functional. The note with it: read-out: MED.
In data set [4] the test system is Mus musculus. Kind of data set: Neurotoxicity in albino CF1 mouse assessed as motor impairment at 300 mg/kg, ip after 4 hrs by rotarod test. Format: toxicity, organism-based. Details: dose 300 mg/kg, route intraperitoneal. The note with it: in vivo.
The test system of data set [5] is Mus musculus. Kind of data set: Anticonvulsant activity in ip dosed albino CF1 mouse assessed as protection against maximal electroshock-induced seizures after 0.25 hrs. The settings on record: read-out: MED. The format is functional.
Data set [6] relates to Mus musculus. Nature of the data set: Anticonvulsant activity in albino CF1 mouse assessed as protection against subcutaneous pentylenetetrazole-induced seizures at 300 mg/kg, ip after 4 hrs. The format is functional, organism-based. Details: dose 300 mg/kg.
The subject of data set [7] is Mus musculus. Nature of the data set: Anticonvulsant activity in albino CF1 mouse assessed as protection against subcutaneous pentylenetetrazole-induced seizures at 300 mg/kg, ip after 0.5 hrs. The format is functional, organism-based. Set-up: dose 300 mg/kg.
In data set [8] the test system is Mus musculus. Kind of data set: Neurotoxicity in ip dosed albino CF1 mouse assessed as minimum dose required to cause motor impairment after 4 hrs by rotarod test. The note with it: in vivo. The format is toxicity, organism-based.
In data set [9] the test system is Rattus norvegicus. Kind of data set: Anticonvulsant activity in Sprague-Dawley rat assessed as protection against maximal electroshock-induced seizures at 30 mg/kg, po after 1 hr. The format is functional.
Data set [10] concerns Mus musculus. Nature of the data set: Anticonvulsant activity in albino CF1 mouse assessed as protection against electrically-induced seizure at 100 mg/kg, ip after 0.5 hrs by 6Hz psychomotor seizure test. Format: functional.
The test system of data set [11] is Mus musculus. Nature of the data set: Anticonvulsant activity in albino CF1 mouse assessed as protection against electrically-induced seizure at 100 mg/kg, ip after 0.25 hrs by 6Hz psychomotor seizure test. Format: functional.
For data set [12], the system named is Rattus norvegicus. Nature of the data set: Anticonvulsant activity in Sprague-Dawley rat assessed as protection against maximal electroshock-induced seizures at 30 mg/kg, po after 2 hrs. Format: functional.
Data set [13] has as its system Rattus norvegicus. Kind of data set: Anticonvulsant activity in Sprague-Dawley rat assessed as protection against maximal electroshock-induced seizures at 30 mg/kg, po after 4 hrs. Format: functional.
For data set [14], the system named is Mus musculus. Kind of data set: Anticonvulsant activity in ip dosed albino CF1 mouse assessed as protection against subcutaneous pentylenetetrazole-induced seizures after 4 hrs. Format: functional. The note with it: albino CF1, 4 h, read-out: MED.
The test system of data set [15] is Mus musculus. Nature of the data set: Anticonvulsant activity in albino CF1 mouse assessed as protection against electrically-induced seizure at 100 mg/kg, ip after 2 hrs by 6Hz psychomotor seizure test. The format is functional.
The subject of data set [16] is Mus musculus. Kind of data set: Anticonvulsant activity in albino CF1 mouse assessed as protection against electrically-induced seizure at 100 mg/kg, ip after 4 hrs by 6Hz psychomotor seizure test. Format: functional.
In data set [17] the test system is Rattus norvegicus. Nature of the data set: Anticonvulsant activity in Sprague-Dawley rat assessed as protection against maximal electroshock-induced seizures at 30 mg/kg, po after 0.25 hrs. The format is functional.
Data set [18] has as its system Mus musculus. Kind of data set: Anticonvulsant activity in albino CF1 mouse assessed as protection against electrically-induced seizure at 100 mg/kg, ip after 1 hr by 6Hz psychomotor seizure test. The format is functional.
The subject of data set [19] is Mus musculus. Nature of the data set: Anticonvulsant activity in ip dosed albino CF1 mouse assessed as protection against maximal electroshock-induced seizures after 4 hrs. Format: functional. The settings on record: read-out: MED.
The test system of data set [20] is Mus musculus. Kind of data set: Neurotoxicity in ip dosed albino CF1 mouse assessed as minimum dose required to cause motor impairment after 0.5 hrs by rotarod test. Format: toxicity, organism-based. The note with it: in vivo.
Data set [21] concerns Rattus norvegicus. Nature of the data set: Anticonvulsant activity in Sprague-Dawley rat assessed as protection against maximal electroshock-induced seizures at 30 mg/kg, po after 0.5 hrs. Format: functional.
The subject of data set [22] is Mus musculus. Nature of the data set: Anticonvulsant activity in ip dosed albino CF1 mouse assessed as protection against subcutaneous pentylenetetrazole-induced seizures after 0.5 hrs. The format is functional. The settings on record: albino CF1, 0.5 h, read-out: MED.
The subject of data set [23] is Mus musculus. Kind of data set: Anticonvulsant activity in albino CF1 mouse assessed as protection against maximal electroshock-induced seizures at 300 mg/kg, ip after 0.5 hrs. Format: functional, organism-based. Details: dose 300 mg/kg.

Calls of active or inactive are those of the source. No cut-off for these calls is given here.

In the case of `CC1(C)CC(=O)N(CC(=O)N2CCN(c3ccccc3)CC2)C1=O`, the outcome with Mus musculus [1], in the data set on Mus musculus [6] and in the data set on Mus musculus [7] was inactive. Further, the Activity entry with Mus musculus [2] and in the data set on Mus musculus [4] was “Non-toxic” throughout. Moreover, the minimal effective dose with Mus musculus [3] amounted to 300 mg/kg; in the data set with Mus musculus [5], 100 mg/kg.
On to `O=C(CN1C(=O)CCC1=O)N1CCN(c2cccc(C(F)(F)F)c2)CC1`, for which the MTC in the data set with Mus musculus [8] amounted to 300 mg/kg; in the data set on Mus musculus [20], 100 mg/kg. Further, the Activity in the data set with Rattus norvegicus [9] is given as 75%; in the data set on Mus musculus [10] (route intraperitoneal), 100%; in the data set on Mus musculus [11] (route intraperitoneal), 100%; in the data set with Rattus norvegicus [12], 75%; in the data set with Rattus norvegicus [13], 75%; with Mus musculus [15] (route intraperitoneal) it was 100%. Besides, the Activity in the data set on Mus musculus [16] (route intraperitoneal) and with Mus musculus [18] (route intraperitoneal) was 75% in each case. The values for the minimal effective dose in the data set with Mus musculus [14], in the data set on Mus musculus [3] and with Mus musculus [19] were 300 mg/kg, 100 mg/kg and 100 mg/kg, respectively. Also, the outcome in the data set on Mus musculus [7] and in the data set on Rattus norvegicus [17] was inactive.
On to `O=C(CN1C(=O)CCC1=O)N1CCN(c2ccc(Cl)cc2)CC1`, for which the MTC in the data set with Mus musculus [8] came to 300 mg/kg. Besides, the outcome in the data set on Rattus norvegicus [9], with Mus musculus [10], in the data set with Mus musculus [11], in the data set on Rattus norvegicus [21], with Mus musculus [15] and in the data set on Mus musculus [16] was inactive. Also, the outcome in the data set on Mus musculus [6], with Rattus norvegicus [17] and in the data set with Mus musculus [18] was inactive. The Activity entry with Mus musculus [2] is reported as “Non-toxic”. Moreover, the minimal effective dose was determined as 100 mg/kg in the data set with Mus musculus [3], 300 mg/kg in the data set with Mus musculus [19] and 300 mg/kg with Mus musculus [22].
Turning to `CC1CC(=O)N(CC(=O)N2CCN(c3ccccc3)CC2)C1=O` (stereo not given), in the data set on Mus musculus [1], the outcome was inactive. Besides, the minimal effective dose in the data set on Mus musculus [14], in the data set on Mus musculus [3] and in the data set with Mus musculus [22] was 300 mg/kg each time. In addition, the Activity result in the data set on Mus musculus [4] is “Non-toxic”. Besides, in the data set on Mus musculus [20], the MTC stood at 300 mg/kg.
In the case of `CCC1(CC)CC(=O)N(CC(=O)N2CCN(c3ccc(Cl)cc3)CC2)C1=O`, the Activity result with Mus musculus [2] and with Mus musculus [4] was “Non-toxic” each time. Moreover, the outcome with Mus musculus [6], in the data set with Mus musculus [7] and in the data set on Mus musculus [23] was inactive. The minimal effective dose with Mus musculus [19] is 300 mg/kg.
`CCC1(CC)CC(=O)N(CC(=O)N2CCN(c3ccccc3)CC2)C1=O`: the result in the data set with Mus musculus [1], in the data set on Mus musculus [6], in the data set with Mus musculus [7] and with Mus musculus [23] was inactive. The Activity result in the data set on Mus musculus [2] and in the data set on Mus musculus [4] was “Non-toxic” each time.
As for `CCC1(C)CC(=O)NC1=O` (stereo not given) [ETHOSUXIMIDE], the result in the data set with Mus musculus [1] and with Mus musculus [23] was inactive. For the same compound, the Activity result with Mus musculus [2] and in the data set with Mus musculus [4] was “Non-toxic” in each case. Also, the results for the minimal effective dose with Mus musculus [14] and in the data set with Mus musculus [22] were 300 mg/kg and 100 mg/kg, respectively.
